Reference: patent publication US20240336613A1, “HETEROARYL COMPOUNDS FOR TREATING HUNTINGTON'S DISEASE” (PTC THERAPEUTICS, INC., priority 2021, published 2024)

The molecules below were run on Huntingtin protein (HTT) (assay: Endogenous Huntingtin Protein Assay (MSD electrochemiluminescence)). Conditions: Table 1, Endogenous Huntingtin Protein Assay.
Assay type: cell-based
Description: Compounds of Formula (I) were tested using the Meso Scale Discovery (MSD) Assay provided in International Application No. PCT/US2016/066042, filed on Dec. 11, 2016 and claiming priority to United States Provisional Application U.S. 62/265,652 filed on Dec. 10, 2015, the entire contents of which are incorporated herein by reference.
The Endogenous Huntingtin Protein assay used in Example 1 was developed using the ELISA-based MSD electrochemiluminescence assay platform.
Meso Scale Discovery (MSD) 96-well or 384-well plates were coated overnight at 4° C. with MW1 (expanded polyglutamine) or MAB2166 monoclonal antibody (for capture) at a concentration of 1 μg/mL in PBS (30 μL per well). Plates were then washed three times with 300 μL wash buffer (0.05% Tween-20 in PBS) and blocked (100 μL blocking buffer; 5% BSA in PBS) for 4-5 hours at room temperature with rotational shaking and then washed three times with wash buffer.
Samples (25 μL) were transferred to the antibody-coated MSD plate and incubated overnight at 4° C. After removal of the lysates, the plate was washed three times with wash buffer, and 25 μL of #5656S (Cell signaling; rabbit monoclonal) secondary antibody (diluted to 0.25 μg/mL in 0.05% Tween-20 in blocking buffer) was added to each well and incubated with shaking for 1 Hour at room temperature. Following incubation with the secondary antibody, the wells were rinsed with wash buffer after which 25 μL of goat anti-rabbit SULFO TAG secondary detection antibody (required aspect of the MSD system) (diluted to 0.25 μg/mL in 0.05% Tween-20 in blocking buffer) was added to each well and incubated with shaking for 1 hour at room temperature. After rinsing three times with wash buffer, 150 μL of read buffer T with surfactant (MSD) were added to each empty well, and the plate was imaged on a SI 6000 imager (MSD) according to manufacturers' instructions provided for 96- or 384-well plates.
In the case of `Cc1cn(-c2ccc(-c3cc4ccn([C@H]5CC(C)(C)NC(C)(C)[C@H]5F)c4nn3)c(O)c2)nn1` [Cpd 15, 2-{7-[(3S,4S)-3-fluoro-2,2,6,6-tetramethylpiperidin-4-yl]-7H-pyrrolo[2,3-c]pyridazin-3-yl}-5-(4-methyl-1H-1,2,3-triazol-1-yl)phenol], the IC50 is reported as under 100 nM.
`Cc1cn(-c2ccc(-c3cc4ccn([C@H]5CCNC6(CC6)C5)c4nn3)c(O)c2)nn1` [Cpd 16, 2-{7-[(7S)-4-azaspiro[2.5]octan-7-yl]-7H-pyrrolo[2,3-c]pyridazin-3-yl}-5-(4-methyl-1H-1,2,3-triazol-1-yl)phenol] was tested, and the IC50 was under 100 nM.
`Cc1cnnn1-c1ccc(-c2cc3ccn([C@H]4CC(C)(C)NC(C)(C)[C@H]4F)c3nn2)c(O)c1` [Cpd 17, 2-{7-[(3S,4S)-3-fluoro-2,2,6,6-tetramethylpiperidin-4-yl]-7H-pyrrolo[2,3-c]pyridazin-3-yl}-5-(5-methyl-1H-1,2,3-triazol-1-yl)phenol] was tested, and the IC50 was 100 to 500 nM.
`CC1(C)C[C@H](n2ccc3cc(-c4ccc(-n5cc(Cl)nn5)cc4O)nnc32)[C@H](F)C(C)(C)N1` [Cpd 19, 5-(4-chloro-1H-1,2,3-triazol-1-yl)-2-{7-[(3S,4S)-3-fluoro-2,2,6,6-tetramethylpiperidin-4-yl]-7H-pyrrolo[2,3-c]pyridazin-3-yl}phenol] gave an IC50 of under 100 nM.

Same assay, conditions: Table 1, Endogenous Huntingtin Protein Assay; read-out: IC50
Work on “2-{7-[(1S,2R,3R,5R)-2-fluoro-1,5-dimethyl-8-azabicyclo[3.2.1]octan-3-yl]-7H-pyrrolo[2,3-c]pyridazin-3-yl}-5-(1H-1,2,3-triazol-1-yl)phenol and 2-{7-[(1R,2S,3S,5S)-2-fluoro-1,5-dimethyl-8-azabicyclo[3.2.1]octan-3-yl]-7H-pyrrolo[2,3-c]pyridazin-3-yl}-5-(1H-1,2,3-triazol-1-yl)phenol [Cpd 21]” yielded an IC50 of under 100 nM.
Molecule “2-{7-[(1S,2S,3R,5R)-2-fluoro-8-azabicyclo[3.2.1]octan-3-yl]-7H-pyrrolo[2,3-c]pyridazin-3-yl}-5-(1H-1,2,3-triazol-1-yl)phenol and 2-{7-[(1R,2R,3S,5S)-2-fluoro-8-azabicyclo[3.2.1]octan-3-yl]-7H-pyrrolo[2,3-c]pyridazin-3-yl}-5-(1H-1,2,3-triazol-1-yl)phenol [Cpd 20]” has an IC50 of under 100 nM.
For “2-{7-[(3R,4S)-3-fluoro-2,2,6,6-tetramethylpiperidin-4-yl]-7H-pyrrolo[2,3-c]pyridazin-3-yl}-5-(1H-1,2,3-triazol-1-yl)phenol and 2-{7-[(3S,4R)-3-fluoro-2,2,6,6-tetramethylpiperidin-4-yl]-7H-pyrrolo[2,3-c]pyridazin-3-yl}-5-(1H-1,2,3-triazol-1-yl)phenol [Cpd 3]”, the IC50 was under 100 nM.
“2-{7-[(3S,4S)-3-fluoro-2,2,6,6-tetramethylpiperidin-4-yl]-7H-pyrrolo[2,3-c]pyridazin-3-yl}-5-(1H-1,2,3-triazol-1-yl)phenol and 2-{7-[(3R,4R)-3-fluoro-2,2,6,6-tetramethylpiperidin-4-yl]-7H-pyrrolo[2,3-c]pyridazin-3-yl}-5-(1H-1,2,3-triazol-1-yl)phenol [Cpd 2]” showed an IC50 of under 100 nM.
“2-{7-[(4S,5R)-5-fluoro-2,2-dimethylpiperidin-4-yl]-7H-pyrrolo[2,3-c]pyridazin-3-yl}-5-(1H-1,2,3-triazol-1-yl)phenol and 2-{7-[(4R,5S)-5-fluoro-2,2-dimethylpiperidin-4-yl]-7H-pyrrolo[2,3-c]pyridazin-3-yl}-5-(1H-1,2,3-triazol-1-yl)phenol [Cpd 12]” showed an IC50 of under 100 nM.
With “2-{7-[(8R,9R)-9-fluoro-5-azaspiro[3.5]nonan-8-yl]-7H-pyrrolo[2,3-c]pyridazin-3-yl}-5-(1H-1,2,3-triazol-1-yl)phenol and 2-{7-[(8S,9S)-9-fluoro-5-azaspiro[3.5]nonan-8-yl]-7H-pyrrolo[2,3-c]pyridazin-3-yl}-5-(1H-1,2,3-triazol-1-yl)phenol [Cpd 23]” the IC50 was under 100 nM.
For “2-{7-[(8S,9R)-8-fluoro-6-azaspiro[4.5]decan-9-yl]-7H-pyrrolo[2,3-c]pyridazin-3-yl}-5-(1H-1,2,3-triazol-1-yl)phenol and 2-{7-[(8R,9S)-8-fluoro-6-azaspiro[4.5]decan-9-yl]-7H-pyrrolo[2,3-c]pyridazin-3-yl}-5-(1H-1,2,3-triazol-1-yl)phenol [Cpd 25]”, the IC50 was 100 to 500 nM.
“5-(1H-1,2,3-triazol-1-yl)-2-{7-[(4RS)-1,2,2-trimethylpiperidin-4-yl]-7H-pyrrolo[2,3-c]pyridazin-3-yl}phenol [Cpd 6]” gave an IC50 of 500 to 1000 nM.
Molecule `CC1(C)CC(n2ccc3cc(-c4ccc(-n5ccnn5)cc4O)nnc32)CCN1` (racemic) [Cpd 5, 2-{7-[(4RS)-2,2-dimethylpiperidin-4-yl]-7H-pyrrolo[2,3-c]pyridazin-3-yl}-5-(1H-1,2,3-triazol-1-yl)phenol] has an IC50 of under 100 nM.
`CC1(C)CC(n2ccc3cc(-c4ccc(-n5ccnn5)cc4O)nnc32)CC(C)(C)N1` [Cpd 1, 2-[7-(2,2,6,6-tetramethylpiperidin-4-yl)-7H-pyrrolo[2,3-c]pyridazin-3-yl]-5-(1H-1,2,3-triazol-1-yl)phenol] was tested, and the IC50 was under 100 nM.
`Oc1cc(-n2ccnn2)ccc1-c1cc2ccn(C3CCNC4(CC4)C3)c2nn1` (stereo not shown) [Cpd 4, 2-[7-(4-azaspiro[2.5]octan-7-yl)-7H-pyrrolo[2,3-c]pyridazin-3-yl]-5-(1H-1,2,3-triazol-1-yl)phenol] gave an IC50 of under 100 nM.
`CN1CCC(n2ccc3cc(-c4ccc(-n5ccnn5)cc4O)nnc32)CC12CC2` (stereo not shown) [Cpd 7, 2-[7-(4-methyl-4-azaspiro[2.5]octan-7-yl)-7H-pyrrolo[2,3-c]pyridazin-3-yl]-5-(1H-1,2,3-triazol-1-yl)phenol] showed an IC50 of under 100 nM.
For `CC1(C)C[C@H](n2ccc3cc(-c4ccc(-n5ccnn5)cc4O)nnc32)[C@H](F)C(C)(C)N1` [Cpd 8], the IC50 was under 100 nM.
With `Cc1cc2cc(-c3ccc(-n4ccnn4)cc3O)nnc2n1C1CCNC2(CC2)C1` (stereo not shown) [Cpd 9, 2-[7-(4-azaspiro[2.5]octan-7-yl)-6-methyl-7H-pyrrolo[2,3-c]pyridazin-3-yl]-5-(1H-1,2,3-triazol-1-yl)phenol] the IC50 was 100 to 500 nM.
For `Cc1cc2cc(-c3ccc(-n4ccnn4)cc3O)nnc2n1[C@H]1CC(C)(C)NC(C)(C)[C@H]1F` [Cpd 10, 2-{7-[(3S,4S)-3-fluoro-2,2,6,6-tetramethylpiperidin-4-yl]-6-methyl-7H-pyrrolo[2,3-c]pyridazin-3-yl}-5-(1H-1,2,3-triazol-1-yl)phenol], the IC50 was under 100 nM.
Molecule `Oc1cc(-n2ccnn2)ccc1-c1cc2ccn([C@@H]3CCNC4(CC4)C3)c2nn1` [Cpd 11, 2-{7-[(7R)-4-azaspiro[2.5]octan-7-yl]-7H-pyrrolo[2,3-c]pyridazin-3-yl}-5-(1H-1,2,3-triazol-1-yl)phenol] has an IC50 of under 100 nM.
Work on `Oc1cc(-n2ccnn2)ccc1-c1cc2ccn([C@H]3CCNC4(CC4)C3)c2nn1` [Cpd 13, 2-{7-[(7S)-4-azaspiro[2.5]octan-7-yl]-7H-pyrrolo[2,3-c]pyridazin-3-yl}-5-(1H-1,2,3-triazol-1-yl)phenol] yielded an IC50 of under 100 nM.
`Oc1cc(-n2ccnn2)cnc1-c1cc2ccn([C@H]3CCNC4(CC4)C3)c2nn1` [Cpd 14, 2-{7-[(7S)-4-azaspiro[2.5]octan-7-yl]-7H-pyrrolo[2,3-c]pyridazin-3-yl}-5-(1H-1,2,3-triazol-1-yl)pyridine-3-ol] was tested, and the IC50 was under 100 nM.
Work on `Cc1cnnn1-c1ccc(-c2cc3ccn([C@H]4CCNC5(CC5)C4)c3nn2)c(O)c1` [Cpd 18, 2-{7-[(7S)-4-azaspiro[2.5]octan-7-yl]-7H-pyrrolo[2,3-c]pyridazin-3-yl}-5-(5-methyl-1H-1,2,3-triazol-1-yl)phenol] yielded an IC50 of 500 to 1000 nM.
`CC1(C)C[C@H](n2ccc3cc(-c4ccc(-n5ccnn5)cc4O)nnc32)[C@H](F)CN1` [Cpd 22, 2-{7-[(4S,5R)-5-fluoro-2,2-dimethylpiperidin-4-yl]-7H-pyrrolo[2,3-c]pyridazin-3-yl}-5-(1H-1,2,3-triazol-1-yl)phenol] was tested, and the IC50 was under 100 nM.
With `Oc1cc(-n2ccnn2)ccc1-c1cc2ccn(C3CC4(CC4)NC4(CC4)C3)c2nn1` (stereo not shown) [Cpd 24, 2-[7-(4-azadispiro[2.1.2^5.3^3]decan-9-yl)-7H-pyrrolo[2,3-c]pyridazin-3-yl]-5-(1H-1,2,3-triazol-1-yl)phenol] the IC50 was under 100 nM.
Molecule `CC1(C)C[C@H](n2ccc3cc(-c4cc(F)c(-n5ccnn5)cc4O)nnc32)[C@H](F)C(C)(C)N1` [Cpd 26, 4-fluoro-2-{7-[(3S,4S)-3-fluoro-2,2,6,6-tetramethylpiperidin-4-yl]-7H-pyrrolo[2,3-c]pyridazin-3-yl}-5-(1H-1,2,3-triazol-1-yl)pheno] has an IC50 of under 100 nM.

Same assay, conditions: Table 2, comparison compounds tested according to the assay of Example 1; read-out: IC50
In the case of `CC1(C)CC(n2ccc3cc(-c4ccc(-n5ccnn5)cc4O)nnc32)CC(C)(C)N1` [Cpd 1, 2-[7-(2,2,6,6-tetramethylpiperidin-4-yl)-7H-pyrrolo[2,3-c]pyridazin-3-yl]-5-(1H-1,2,3-triazol-1-yl)phenol], the IC50 is reported as 0.8 nM.
`CC1(C)CC(n2nnc3cc(-c4ccc(-c5cn[nH]c5)cc4O)nnc32)CC(C)(C)N1` [Cpd 7 in WO2020/005873, reference compound] was tested, and the IC50 was 6.4 nM.
`CC1(C)CC(n2ccc3cc(-c4ccc(-c5cn[nH]c5)cc4O)nnc32)CC(C)(C)N1` [Cpd 26 in WO2020/005873, reference compound] was tested, and the IC50 was 7.1 nM.

Same assay, conditions: compared with Cpd 26 in WO2020/005873 (1H-pyrazole replaced with 1H-1,2,3-triazole)
For `CC1(C)CC(n2ccc3cc(-c4ccc(-n5ccnn5)cc4O)nnc32)CC(C)(C)N1` [Cpd 1, 2-[7-(2,2,6,6-tetramethylpiperidin-4-yl)-7H-pyrrolo[2,3-c]pyridazin-3-yl]-5-(1H-1,2,3-triazol-1-yl)phenol], the improvement in potency was “over 8 fold”.

Same assay, conditions: compared with Cpd 72 in WO2020/005873 (3H-[1,2,3]-triazolo[4,5-c]pyridazine core)
With `CC1(C)CC(n2ccc3cc(-c4ccc(-n5ccnn5)cc4O)nnc32)CC(C)(C)N1` [Cpd 1, 2-[7-(2,2,6,6-tetramethylpiperidin-4-yl)-7H-pyrrolo[2,3-c]pyridazin-3-yl]-5-(1H-1,2,3-triazol-1-yl)phenol] the improvement in potency was 223 fold.
